Data from ChEMBL document CHEMBL5528028, “Discovery of benzopyridone cyanoacetates as new type of potential broad-spectrum antibacterial candidates” (Eur J Med Chem, 2024).
≈ marks a conversion by molar mass, not a printed value.

What was measured:
Type in all cases: functional
Staphylococcus aureus [1] = test: Antibacterial activity against Staphylococcus aureus ATCC 25923 assessed growth inhibition by micro broth dilution method
Pseudomonas aeruginosa [2] = test: Antibacterial activity against Pseudomonas aeruginosa ATCC 27853 assessed growth inhibition by micro broth dilution method
Pseudomonas aeruginosa [3] = test: Antibacterial activity against Pseudomonas aeruginosa assessed growth inhibition by micro broth dilution method
Escherichia coli [4] = test: Antibacterial activity against Escherichia coli assessed growth inhibition by micro broth dilution method
Staphylococcus aureus [5] = test: Antibacterial activity against methicillin-resistant Staphylococcus aureus assessed growth inhibition by micro broth dilution method
Enterococcus faecalis = test: Antibacterial activity against Enterococcus faecalis assessed growth inhibition by micro broth dilution method
Escherichia coli [6] = test: Antibacterial activity against Escherichia coli ATCC 25922 assessed growth inhibition by micro broth dilution method
Staphylococcus aureus [7] = test: Antibacterial activity against Staphylococcus aureus ATCC 29213 assessed growth inhibition by micro broth dilution method
Staphylococcus aureus [8] = test: Antibacterial activity against Staphylococcus aureus assessed growth inhibition by micro broth dilution method
Acinetobacter baumannii = test: Antibacterial activity against Acinetobacter baumannii assessed growth inhibition by micro broth dilution method
Klebsiella pneumoniae = test: Antibacterial activity against Klebsiella pneumonia assessed growth inhibition by micro broth dilution method

SMILES	MIC (Staphylococcus aureus [1]) [µg/mL]	MIC (Pseudomonas aeruginosa [2]) [µg/mL]	MIC (Pseudomonas aeruginosa [3]) [µg/mL]	MIC (Escherichia coli [4]) [µg/mL]	MIC (Staphylococcus aureus [5]) [µg/mL]	MIC (Enterococcus faecalis) [µg/mL]	MIC (Escherichia coli [6]) [µg/mL]	MIC (Staphylococcus aureus [7]) [µg/mL]	MIC (Staphylococcus aureus [8]) [µg/mL]	MIC (Acinetobacter baumannii) [µg/mL]	MIC (Klebsiella pneumoniae) [µg/mL]
CCOC(=O)c1cn2c3c(c(F)c(F)cc3c1=O)OC[C@@H]2C	32 (≈ 103 µM)	256 (≈ 828 µM)	128 (≈ 414 µM)	16 (≈ 51.7 µM)	64 (≈ 207 µM)	128 (≈ 414 µM)	128 (≈ 414 µM)	64 (≈ 207 µM)	128 (≈ 414 µM)	32 (≈ 103 µM)	32 (≈ 103 µM)
CCCCn1cc(C(=O)OCC)c(=O)c2cc(F)c([C-](C#N)C(=O)OCC)cc21.[Na+] (centres undefined)	2	8	8	8	32	16	16	8	64	16	16
CCOC(=O)c1cn(CCN2CCOCC2)c2cc(F)c(F)cc2c1=O	256 (≈ 699 µM)	128 (≈ 349 µM)	128 (≈ 349 µM)	2 (≈ 5.46 µM)	256 (≈ 699 µM)	128 (≈ 349 µM)	128 (≈ 349 µM)	256 (≈ 699 µM)	64 (≈ 175 µM)	2 (≈ 5.46 µM)	256 (≈ 699 µM)
CCOC(=O)c1cn(Cc2ccc(F)cc2F)c2cc(C(C#N)C(=O)OCC)c(F)cc2c1=O (centres undefined)	4 (≈ 8.47 µM)	4 (≈ 8.47 µM)	2 (≈ 4.23 µM)	16 (≈ 33.9 µM)	32 (≈ 67.7 µM)	16 (≈ 33.9 µM)	16 (≈ 33.9 µM)	4 (≈ 8.47 µM)	8 (≈ 16.9 µM)	32 (≈ 67.7 µM)	4 (≈ 8.47 µM)
CCOC(=O)c1cn(CC=C(C)C)c2cc(F)c(F)cc2c1=O	64 (≈ 199 µM)	256 (≈ 797 µM)	64 (≈ 199 µM)	8 (≈ 24.9 µM)	256 (≈ 797 µM)	128 (≈ 398 µM)	64 (≈ 199 µM)	128 (≈ 398 µM)	128 (≈ 398 µM)	256 (≈ 797 µM)	32 (≈ 99.6 µM)
CCOC(=O)c1cn(Cc2cnc(Cl)s2)c2cc([C-](C#N)C(=O)OCC)c(F)cc2c1=O.[Na+] (centres undefined)	4	2	64	4	4	4	8	8	32	16	32
CCOC(=O)c1cn(Cc2ccccn2)c2cc(F)c(F)cc2c1=O	64 (≈ 186 µM)	64 (≈ 186 µM)	128 (≈ 372 µM)	2 (≈ 5.81 µM)	256 (≈ 744 µM)	128 (≈ 372 µM)	64 (≈ 186 µM)	128 (≈ 372 µM)	64 (≈ 186 µM)	16 (≈ 46.5 µM)	128 (≈ 372 µM)
C#CCn1cc(C(=O)OCC)c(=O)c2cc(F)c(F)cc21	256 (≈ 879 µM)	256 (≈ 879 µM)	16 (≈ 54.9 µM)	4 (≈ 13.7 µM)	128 (≈ 439 µM)	128 (≈ 439 µM)	64 (≈ 220 µM)	128 (≈ 439 µM)	128 (≈ 439 µM)	256 (≈ 879 µM)	128 (≈ 439 µM)
CCCCCCn1cc(C(=O)OCC)c(=O)c2cc(F)c(F)cc21	128 (≈ 379 µM)	256 (≈ 759 µM)	64 (≈ 190 µM)	8 (≈ 23.7 µM)	256 (≈ 759 µM)	64 (≈ 190 µM)	64 (≈ 190 µM)	128 (≈ 379 µM)	8 (≈ 23.7 µM)	64 (≈ 190 µM)	64 (≈ 190 µM)
CCOC(=O)c1cn(CC2CCCC2)c2cc(F)c(F)cc2c1=O	16 (≈ 47.7 µM)	256 (≈ 763 µM)	128 (≈ 382 µM)	8 (≈ 23.9 µM)	256 (≈ 763 µM)	256 (≈ 763 µM)	128 (≈ 382 µM)	128 (≈ 382 µM)	64 (≈ 191 µM)	256 (≈ 763 µM)	32 (≈ 95.4 µM)
CCOC(=O)C(C#N)c1c(F)cc2c(=O)c(C(=O)O)cn3c2c1OC[C@@H]3C (some centres undefined)	32 (≈ 85.5 µM)	8 (≈ 21.4 µM)	16 (≈ 42.7 µM)	32 (≈ 85.5 µM)	4 (≈ 10.7 µM)	128 (≈ 342 µM)	1 (≈ 2.67 µM)	4 (≈ 10.7 µM)	4 (≈ 10.7 µM)	1 (≈ 2.67 µM)	8 (≈ 21.4 µM)
CCOC(=O)C(C#N)c1cc2c(cc1F)c(=O)c(C(=O)O)cn2CC (centres undefined)	4 (≈ 11.6 µM)	4 (≈ 11.6 µM)	8 (≈ 23.1 µM)	32 (≈ 92.4 µM)	4 (≈ 11.6 µM)	64 (≈ 185 µM)	0.5 (≈ 1.44 µM)	16 (≈ 46.2 µM)	4 (≈ 11.6 µM)	8 (≈ 23.1 µM)	1 (≈ 2.89 µM)
CCOC(=O)c1cn(CC2CC2)c2cc(F)c(F)cc2c1=O	128 (≈ 417 µM)	256 (≈ 833 µM)	32 (≈ 104 µM)	16 (≈ 52.1 µM)	256 (≈ 833 µM)	128 (≈ 417 µM)	64 (≈ 208 µM)	128 (≈ 417 µM)	128 (≈ 417 µM)	256 (≈ 833 µM)	128 (≈ 417 µM)
CCOC(=O)c1cn(Cc2cccc(Cl)c2)c2cc([C-](C#N)C(=O)OCC)c(F)cc2c1=O.[Na+] (centres undefined)	1	2	16	0.5	64	1	2	2	128	64	4
